We go through one compound from patent publication US8241679B2, “Composition comprising the extract of crude drug complex having neuroprotective activity for preventing and treating stroke and neurodegenerative diseases” (Neumed Inc., priority 2007, dated 2012).

This assay concerns MCAo in rats. In words: MCAo experimental model, infarct volume (TTC staining). It counts as in vivo, Sprague-Dawley rat. The conditions noted are these: positive control, 45 mg/kg. As to the method:
To determine the preventing effect of the extract of crude drug complex of the present invention on neuronal injury, following intraluminal suture method using animal model was performed by modifying well-mown method disclosed in the literature (Zea L. E. Stroke, 20, pp 84-91, 1989).
8-weeks old white male Sprague-Dawley rat weighing about 280 g was procured from Samtaco Co. Ltd. (Seoul), […] for 1 week providing with free access to water and feed and acclimated to experimental environment.
The rat was anesthetized with 5% isoflurane gas (mixed gas with the gas mixture consisting of 70% N2O and 30% O2 gas and 5% isoflurane) and maintained with 1% isoflurane gas during experiment.
The skin at the center of rat neck was excised and right CCA (common carotid artery) and ECA (external carotid artery) were isolated from neighboring tissue and nerves with care. […]
The body temperature was monitored and maintained at 37±0.5° C.
The caudal was excised and terminal tissue was discarded to obtain 6 numbers of brain slices with the thickness of 2 mm using by brain matrix. […] The volume of cerebral infarction region was calculated by the OPTIMAS program (Media Cybernetics Co., 6.51 version). To determine the exact volume of cerebral infarction region of right hemisphere excluding edema volume (A), the real volume of cerebral infarction (B) was calculated by following Empirical Formula 1 and 2. […]

`CN(C)c1ccc(O)c2c1C[C@H]1C[C@H]3[C@H](N(C)C)C(O)=C(C(N)=O)C(=O)[C@@]3(O)C(O)=C1C2=O` [minocycline] had an infarct volume of 20.5±2.85%.
